The source of these data is PubChem BioAssay (NCI).

Common to all, as to assay: DTP human tumour cell line panel, 48 h
Test [1] has as its system NCI-H522 lung.
Test [2] concerns MCF7 breast.
The subject of test [3] is HL-60(TB) leukemia.
Test [4] relates to SNB-75 CNS.
In test [5] the test system is SN12C renal.
Test [6] concerns 786-0 renal.
Test [7] deals with DU-145 prostate.
Test [8] concerns A498 renal.
In test [9] the test system is HCT-15 colon.
For test [10], the system named is NCI-H460 lung.
The subject of test [11] is HCT-116 colon.

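Step 1: Grow cells in 96-well plates. Step 2: Expose to compound for 48 hours at 5 concentrations. Step 3: Interpolate endpoints linearly; if unreached, use highest concentration. GI50: concentration for 50% inhibition of growth. TGI: total growth inhibition.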

In the case of `CCOC(=O)c1cc(C2=CCNC2=O)c(-c2cc(C)no2)[nH]1`, the TGI is 46.6 µM in test [1]; > 100 µM in [2]; 56.8 µM in [3]; > 100 µM in test [4]; > 100 µM in test [5]; > 100 µM in test [6]. The TGI in [7], in [8], in test [9], in test [10] and in test [11] was > 100 µM each time.
For `O=C(c1cc(Cl)cc(Cl)c1)N(Cc1cccnc1)C(=S)N(Cc1cccnc1)C(=O)c1cc(Cl)cc(Cl)c1`, the TGI in [1] is 49 µM; in test [2], > 100 µM; in test [3], 90 µM; in [4], > 100 µM; in [5], > 100 µM; in [6] it was 73.8 µM. Besides, the TGI was > 100 µM in test [7]; 81.2 µM in [8]; 83.3 µM in test [9]; > 100 µM in test [10]; 96.5 µM in [11].
In the case of `CC1=NN(c2cccc(Cl)c2)C2(C1=Cc1cccs1)C(Cl)C(=O)N2c1nc2ccccc2s1` (centres undefined), the TGI in test [1] was 38.2 µM; in test [2] it was 69.5 µM; in test [3] it was 61 µM; in test [4], 86.3 µM; in test [6], 29.1 µM; in test [7], > 100 µM. Besides, the TGI turned out to be 43.5 µM in test [8], 51.7 µM in [9], 45.4 µM in [10] and 34.1 µM in test [11].
For the molecule `Clc1ccc(OCc2nnc3sc(SSc4nn5c(COc6ccc(Cl)cc6)nnc5s4)nn23)cc1`, the TGI in [1], in [2], in test [3], in test [4], in [5] and in test [6] was > 100 µM throughout. The concentration for total growth inhibition (TGI) in test [7] is > 100 µM; in test [8] it was 86 µM; in test [9], > 100 µM; in [10] it was > 100 µM; in [11], > 100 µM. For the same molecule, the values for the GI50 in test [2], in test [8] and in test [9] were 45 µM, 28.9 µM and 86.2 µM, respectively.
For the molecule `O=C(CCc1ccc(O)c(O)c1)NCCc1ccccc1`, the TGI in test [1] was 43.4 µM; in test [2], 35 µM; in test [3], 34 µM; in test [4], > 100 µM; in [5], > 31.6 µM; in test [6] it was > 100 µM. Further, the TGI in test [7] is > 100 µM; in test [8] it was > 100 µM; in test [9] it was > 100 µM; in test [10] it was > 100 µM; in test [11] it was > 31.6 µM.
Consider `COC(O)C(=O)c1c2c(cc3c1CCC3)CCC2` (centres undefined), for which the TGI was > 100 µM in test [1]; > 100 µM in test [2]; 79.9 µM in [3]; > 100 µM in test [4]; > 100 µM in test [5]; > 100 µM in [6]. For the same molecule, the TGI in test [7], in [8], in test [9], in test [10] and in test [11] was > 100 µM in each case.
For the molecule `O=C1C=CC(=O)c2c(O)c(NCCO)c(Cl)c(O)c21`, the TGI in [1] was > 10 µM; in test [2], 3.94 µM; in test [3] it was 5.95 µM; in test [4], > 6.54 µM; in test [5], > 5.55 µM; in test [6] it was > 10 µM. For the same molecule, the TGI in test [7] was 4.98 µM; in test [8], > 10 µM; in [9] it was 6.47 µM; in test [10], 8.68 µM; in test [11], 3.55 µM.
Consider `COc1cccc(C2c3cc4c(cc3OC(NNC(N)=O)C2C)OCO4)c1O` (centres undefined), for which the TGI in [1] is 10.9 µM; in test [2], > 100 µM; in test [3], 4 µM; in [4] it was > 69.4 µM; in [5], > 100 µM; in test [6], > 69.3 µM. Also, the TGI was > 100 µM in [7]; 42.4 µM in test [8]; > 100 µM in test [9]; > 26.4 µM in [10]; > 38.9 µM in test [11].
Consider `CC(=O)c1cc(CC2Cc3cc4c(cc3C2=O)CCC4)cc2c1CCC2` (centres undefined), for which the TGI is > 100 µM in [1]; > 100 µM in test [2]; 56.2 µM in test [3]; > 100 µM in test [4]; > 100 µM in [5]; > 100 µM in [6]. Besides, the TGI in [7], in test [8], in test [9], in test [10] and in test [11] was > 100 µM each time.
In the case of `COc1ccc2nc3cc([N+](=O)[O-])ccc3c(NNc3ccc([N+](=O)[O-])cc3)c2c1`, the TGI is > 100 µM in [1]; > 100 µM in test [2]; 54.2 µM in test [3]; > 100 µM in [4]; > 100 µM in test [5]; > 100 µM in test [6]. The TGI was > 100 µM in [7]; 0.382 µM in test [8]; > 100 µM in [9]; > 59.7 µM in test [10]; > 100 µM in [11].
With `Cc1ccc(NC(=O)CC(=O)N2N=C(N3CCCCC3)CC2c2ccccc2)cc1` (centres undefined), the TGI in [1], in test [2], in test [3], in test [4], in test [5] and in test [6] was > 100 µM throughout. The TGI in test [7], in test [8], in test [9], in [10] and in test [11] was > 100 µM in each case.
Consider `CCOc1cc(/C=N/c2nc3cc4sc(/N=C/c5ccc(O)c(OCC)c5)nc4cc3s2)ccc1O`, for which the concentration for total growth inhibition (TGI) in [1] was > 100 µM; in test [2], > 100 µM; in [3], 19.9 µM; in test [4], > 100 µM; in [5], > 100 µM; in [6] it was > 100 µM. In addition, the TGI in [7], in [8], in test [9], in test [10] and in test [11] was > 100 µM in each case.

As a reminder, the TGI is the concentration at which net growth stops. Low values mean more potent growth arrest, high ones less potent growth arrest. Broadly, the GI50 is the concentration giving 50% growth inhibition.
